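These data come from cells grown in 96-well plates and exposed to compound for 48 hours at five concentrations. Here, GI50 denotes the concentration required for 50% inhibition of growth.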 The source made the active and inactive calls. No stated cut-off is given here; in the data, active = GI50 up to about 1.1 µM and inactive = higher.
Columns and labels:
Assay in all cases: NCI-60 cell line screen, 48 h
MDA-N = system: MDA-N
SNB-75 = system: SNB-75
M14 = system: M14
SK-OV-3 = system: SK-OV-3
HL-60 = system: HL-60
DU-145 = system: DU-145
K562 = system: K562
SF-268 = system: SF-268
Hs-578T = system: Hs-578T
HOP-62 = system: HOP-62
MDA-MB-231 = system: MDA-MB-231
UO-31 = system: UO-31
UACC-257 = system: UACC-257
BT-549 = system: BT-549
COLO 205 = system: COLO 205
NCI-H226 = system: NCI-H226
HCC 2998 = system: HCC 2998
KM12 = system: KM12
SK-MEL-5 = system: SK-MEL-5
SF-295 = system: SF-295
Malme-3M = system: Malme-3M
IGROV-1 = system: IGROV-1
UACC-62 = system: UACC-62
T47D = system: T47D
CAKI-1 = system: CAKI-1
SN12C = system: SN12C
SNB-19 = system: SNB-19
MOLT-4 = system: MOLT-4
TK-10 = system: TK-10
A549 = system: A549
PC-3 = system: PC-3
SK-MEL-28 = system: SK-MEL-28
RPMI-8226 = system: RPMI-8226
SF-539 = system: SF-539
HCT-116 = system: HCT-116
EKVX = system: EKVX
MDA-MB-435 = system: MDA-MB-435
SW-620 = system: SW-620
SR = system: SR
OVCAR-8 = system: OVCAR-8
MCF7 = system: MCF7
CCRF-CEM = system: CCRF-CEM
HCT-15 = system: HCT-15
NCI-H522 = system: NCI-H522
LOX IMVI = system: LOX IMVI
HT-29 = system: HT-29
786-0 = system: 786-0
NCI-H23 = system: NCI-H23
NCI/ADR-RES = system: NCI/ADR-RES
OVCAR-4 = system: OVCAR-4
OVCAR-3 = system: OVCAR-3
A498 = system: A498
U-251 = system: U-251
SK-MEL-2 = system: SK-MEL-2
RXF 393 = system: RXF 393
OVCAR-5 = system: OVCAR-5
HOP-92 = system: HOP-92
NCI-H460 = system: NCI-H460
ACHN = system: ACHN

Measured: GI50

CC1=NC(=Cc2ccc([N+](=O)[O-])cc2)C(=O)N1n1c(-c2ccccc2)nc2ccccc2c1=O
43.1 µM: HCT-15
inactive: MDA-N 49 µM | SNB-75 15.7 µM | M14 46.7 µM | SK-OV-3 68.9 µM | HL-60 32.3 µM | DU-145 51.8 µM | K562 40.6 µM | SF-268 37.8 µM | Hs-578T 50.2 µM | HOP-62 60.1 µM | MDA-MB-231 63.7 µM | UO-31 31.6 µM | UACC-257 42.9 µM | BT-549 85.3 µM | COLO 205 46.6 µM | NCI-H226 95.9 µM | HCC 2998 57.9 µM | KM12 35.6 µM | SK-MEL-5 31.9 µM | SF-295 52 µM | Malme-3M 53.7 µM | IGROV-1 53.6 µM | UACC-62 43.3 µM | T47D 39.8 µM | CAKI-1 35.2 µM | SN12C 52 µM | SNB-19 55.2 µM | MOLT-4 28.8 µM | TK-10 80.7 µM | A549 47.1 µM | PC-3 39.7 µM | SK-MEL-28 57.9 µM | RPMI-8226 22.3 µM | SF-539 67.3 µM | HCT-116 32.1 µM | EKVX 45.5 µM | MDA-MB-435 47.6 µM | SW-620 36.7 µM | SR 35.2 µM | OVCAR-8 36.6 µM | MCF7 29.1 µM | CCRF-CEM 32.8 µM | NCI-H522 32.1 µM | LOX IMVI 34.7 µM | HT-29 37 µM | 786-0 83 µM | NCI-H23 21.8 µM

O=C1/C(=C\c2cccc(Oc3ccccc3)c2)SC(c2ccccc2)N1c1cccc([N+](=O)[O-])c1 (stereo not drawn)
inactive: MDA-N 33.9 µM | NCI/ADR-RES 82.8 µM | M14 65 µM | OVCAR-4 70.3 µM | SK-OV-3 > 100 µM | DU-145 > 100 µM | K562 36.6 µM | SF-268 > 100 µM | Hs-578T 98.9 µM | HOP-62 > 100 µM | OVCAR-3 > 100 µM | MDA-MB-231 > 100 µM | UO-31 96.8 µM | A498 > 100 µM | UACC-257 97.3 µM | BT-549 > 100 µM | COLO 205 > 100 µM | NCI-H226 87.1 µM | HCC 2998 > 100 µM | KM12 72.1 µM | U-251 36.7 µM | SK-MEL-5 42.8 µM | SF-295 > 100 µM | SK-MEL-2 > 100 µM | Malme-3M > 100 µM | UACC-62 60.1 µM | RXF 393 > 100 µM | T47D > 100 µM | CAKI-1 > 100 µM | OVCAR-5 > 100 µM | SN12C > 100 µM | HOP-92 45.7 µM | SNB-19 65.3 µM | MOLT-4 40.7 µM | TK-10 > 100 µM | A549 > 100 µM | SK-MEL-28 > 100 µM | RPMI-8226 34.7 µM | SF-539 25.1 µM | HCT-116 32.7 µM | EKVX > 100 µM | MDA-MB-435 41.6 µM | SW-620 56.4 µM | SR 32.3 µM | OVCAR-8 35.5 µM | MCF7 28.2 µM | CCRF-CEM 21.7 µM | NCI-H460 > 100 µM | NCI-H522 57.5 µM | LOX IMVI 41.6 µM | HT-29 33.9 µM | 786-0 > 100 µM | NCI-H23 > 100 µM | ACHN > 100 µM
> 100 µM: HCT-15

Reference: ChEMBL document CHEMBL1201862, “PubChem BioAssay data set” (2004)
